Experiment [1] has as its system C6-ADR cells. Kind of experiment: Intracellular DOX quantification. Format: cell-based, rat. The following applies: for intracellular concentration of DOX: 1000 ng/mL DOX. As to the method:
Concurrently, intracellular concentration of DOX was determined (FIG. 6B) by UV analysis.

Experiment [2] deals with C6-ADR cells. Kind of experiment: Fluorescence and confocal imaging of intracellular DOX. It is filed as cell-based, rat. As to the method:
The internalization pathway of free DOX and NP-DOX were investigated by labeling endosomal compartments of cells with calcein after incubation with cells for 4 h.
C6-ADR cells were plated at 500,000 cells per well in 6-well plates containing 22×22 mm glass cover slips the night before treatment. Cells were treated with 1000 ng/mL free DOX or NP-DOX with equimolar concentration of DOX in 2 mL fully supplemented DMEM for 4 hrs before cells were washed three times with PBS and 2 mL fresh fully supplemented media added. After 24 hrs, cells were washed three times with PBS, and fixed in 4% formaldehyde (Polysciences Inc., Warrington, Pa.) for 30 min. Cell membranes were stained with wheat germ agglutinin, Alexa Fluor 488 conjugates (WGA-AF488, Invitrogen, Carlsbad, Calif.) following the manufacturer's protocol. The cover slips were then mounted on microscope slides using Prolong Gold anti-fade solution (Invitrogen, Carlsbad, Calif.) containing DAPI for cell nuclei staining. Images were acquired on an inverted fluorescent microscope (Nikon Instruments, Melville, N.Y.) with the appropriate filters using a Nikon Ril Color Cooled Camera System and 60× oil objective Lens. For internalization pathway experiment, cells were treated with DOX or NP-DOX in the presence of 0.25 mM calcein for 4 hrs. […] DOX and calcein uptake were analyzed using confocal microscopy (Zeiss 510 Meta).

Consider `COc1cccc2c1C(=O)c1c(O)c3c(c(O)c1C2=O)C[C@@](O)(C(=O)CO)C[C@@H]3O[C@H]1C[C@H](N)[C@H](O)[C@H](C)O1.Cl` [free DOX, Doxorubicin.HCl], for which the “intracellular concentration of DOX” value came to 0.13±0.01 pg/cell in the experiment on C6-ADR cells [1] (24 h after treatment) and 1.49±0.05 pg/cell in the experiment with C6-ADR cells [1] (four hours after treatment). The “decrease of intracellular DOX concentration” value with C6-ADR cells [1] (by 24 h after initial exposure) turned out to be 91%. In the experiment with C6-ADR cells [2] (C6-ADR cells treated 4 h, imaged 24 h after initial incubation), the “intracellular DOX fluorescence” value is listed as “minimal fluorescence”. Moreover, the “intracellular localization of DOX signal (calcein-labeled endosomes)” value with C6-ADR cells [2] (C6-ADR cells, 4 h incubation, confocal) is “partially colocalized with nucleus and partially localized in cytoplasma”.
